# Laboratory results published in patent US20240376098A1, “METHODS OF TREATMENT USING BCN057, BCN077 AND ANALOGS” (BCN Biosciences L.L.C., priority 2021, published 2024).
# Tests used:
# Panc-1 cells [1] = assay: ATPLite luminescence viability assay on Panc-1 cells; type: cell-based, human
# Protocol: Viability Assay. To determine the effects of BCN 057 in comparison and combination with irinotecan, Oxaloplatin and 5Fu, the ATPLite Luminescence Assay System was used according to manufacturer's instructions. On day 1, 3,000 Panc-1 cells per well were seeded in 96-well white, opaque sterile tissue culture treated microplates and incubated for 24 hours in complete medium at 37° C., 5% CO2. On day 2, the media was exchanged with media containing various combinations of 10 uM BCN 057, 25 μM 5-Fu, 75 μM Oxaloplatin, and 50 μM Irinotecan and incubated at 37° C., 5% CO2. On day 3,4, and 5, the ATP Lite Assay was performed according to manufacturer's instructions for the 24, 48, and 72 hr timepoints. Unless otherwise stated, values were represented as a percent of the control which is the vehicle for each drug. No difference was found in viability between any control vehicle.
# Statistics. The results are shown by calculating the averages (±Standard deviation) in comparison to untreated controls with the indicated (n). The Percent Viability was calculated by dividing the average of each condition by the average of the untreated control (vehicle). Statistical analysis was performed in excel.
# The first example entailed studying the effect of BCN057 in pancreatic cancer cells. Panc-1 cells, a G12D KRAS mutant cell line was treated with BCN057 for 48 hours.
# All data points are n=5. Control (ND) received no drug and BCN057 at 2, 5, 10, and 20 μM final concentration. The Percent viability was calculated by dividing the average value for each condition by the average value of the control cells (V) at each time point.
# (§1) Further, these doses span the concentrations found in plasma during efficacy studies in rodents. Subsequently, microscope images appeared to show cell blebbing and fragmentation shortly after application of BCN057 indicating possible apoptosis. […] Blebbing and cell fragmentation was noted within 20 min of incubation with drug (as shown with the arrows). Cell fragmentation was seen between 20-30 minutes after exposure to the drug.
# The anti-apoptotic phenotype of KRAS is associated with significant resistance to chemotherapy. Thus, to examine whether BCN057 enhances cytotoxic chemotherapeutic agents such as 5-Fluorouracil, also known as 5FU, Panc1 cells were pre-treated with 5FU as reported and incubated with BCN057. […] The effect followed a dose dependent response for BCN057 and was consistent over 24, 48 and 72 hrs after BN057 treatment (24 and 48 hrs not shown).
# All data points are n=5. Control (ND) received no drugs. Study groups include 5FU (50 μM), 057 (BCN057 at 2, 5, 10, and 20 μM or 5FU+BCN057 (BCN057 at 2, 5, 10, and 20 μM in combination with 5FU at 50 μM). The Percent viability was calculated by dividing the average value for each condition by the average value of the control cells (V) with standard deviation at each time point
# Combined chemotherapy and cytotoxicity: Other cytotoxic drugs commonly used in the treatment of pancreatic or colorectal cancer were then examined in similar fashion such as those within FOLFIRINOX such as 5FU, Irinotecan and Oxaliplatin in combination equivalent doses of BCN057 over 24, 48 and 72 hours.
# FIG. 6 is a histogram showing the cytotoxicity of Oxaliplatin and Irinotecan, individually or in combination with 5FU and BCN057 on Panc-1 cells. Cells were incubated with Oxaliplatin, Irinotecan and 5FU with concentrations at 10 μM each and BCN057 (057) also at 10 μM with n=4 for all assays.
# Lgr5+ ISCs = assay: Lgr5+ intestinal stem cells in 5FU treated Lgr5-Cre-ERT-GFP mice; type: in vivo; conditions: 5FU treated mice receiving BCN057
# Protocol: 5FU is a component of FOLFIRINOX and the active agent metabolized from Capecitabine (Xeloda®). To, examine the effect of BCN057 against chemo induced toxicity in Lgr5+ ISCs, Lgr5-Cre-ERT-GFP mice were pre-treated with 5FU as reported and then subjected to BCN057 treatment.
# Stains of GI crypts with green=LGR5+ stem cells. Mice were treated with 5FU and 5FU+BCN057 for 5 days. BCN057 was administered for two extra days after 5FU treatment. Small intestine samples were harvested and stained for LGR5 at 3 days after the last 5FU injection. FIG. 5D is a histogram of the quantitation by % of LGR5+ cells remaining in […] sections at the crypt base showing prevention of 5-FU induced apoptosis in LGR5+ stem cells in GI.
# c-Jun = assay: Western blot of Phospho-c-Jun (T-91/93) in Panc-1 cells; type: cell-based, human
# Protocol: Western Blot: Cells were harvested and lysed in cell lysis buffer on ice for 15 minutes and the lysate was centrifuged at 13,000 rpm at 4° C. for 10 minutes. The supernatant was transferred into a new tube for BCA protein quantification assay (Thermo Fisher Scientific) and the samples were normalized. 3× loading buffer (Cell Signaling) was added the protein sample and boiled for 5 minutes. The samples were used for SDS-PAGE analysis and transferred to nitrocellulose membrane. The membrane was blocked with 5% BSA at room temperature for 1 hour and incubated with primary antibody at 4° C. overnight. The membrane was washed with 1×TBST 5 minutes for 3 times and incubated with horseradish peroxidase-conjugated secondary antibody for 1 hour at room temperature. The protein was visualized by SuperSignal West Pico Stable Peroxide Solution (Thermo Fisher Scientific). The blot was visualized by chemiluminescence using a BioRad Versadoc Imaging System. Phosphorylation at T 91/93 in c-Jun was measured as a function of total c-Jun. Significant phosphorylation at T 91/93 was observed which has been reported to be associated with the activation of c-Jun's pro-apoptotic activity. […] FIG. 4A is a western blot of Phospho-c-Jun (T-91/93). […] Phosphorylation of c-Jun at T-91/93 is known to induce apoptosis. Total c-Jun protein level was unchanged. […]
# Panc-1 cells [2] = assay: Time lapse microscope images of pancreatic cancer cells after drug; type: cell-based, human; conditions: 10 μM BCN057
# Protocol: FIG. 2A is a group of images showing pancreatic cancer cell growth after treatment with 10 μM BCN057 at time 0, 15, 30, 60, 120 and 240 minutes.
# as §1
# [3] = Solubility in aqueous formulations; type: physicochemical; conditions: 30 wt % Captisol (SBE-beta-CD) and 100 mM MSA
smiles,measurement,setting,value
"COc1ccc2cc(-c3nc4ccc(C)cn4c3NCc3ccco3)c(=O)[nH]c2c1 [BCN057, 3-[(Furan-2-ylmethyl)-amino]-2-(7-methoxy-2-oxo-1,2-dihydro-quinolin-3-yl)-6-methyl-imidazo[1,2-a]pyridin-1-ium]",Panc1 cells viability,"Panc-1 cells [1]; 48 hours, increasing doses of BCN057",significant decrease in Panc1 cells viability
same,IC50,"Panc-1 cells [1]; Homo sapiens, Panc-1, 72 hours post application, 2, 5, 10, 20 μM, Quest Graph IC50 Calculator",1.33 µM
same,Cytotoxicity of combination of 5FU and BCN057,"Panc-1 cells [1]; Panc1, 5FU 50 μM plus BCN057 2-20 μM, 24, 48 and 72 hrs",greater cytotoxicity than 5FU alone
same,"Tumor viability on addition of BCN057 to Oxaliplatin, Irinotecan and 5FU","Panc-1 cells [1]; Panc-1, 10 μM each, over 72 hrs",general trend of decreasing tumor viability
same,cytotoxicity toward the cells in the dose response curve,"Panc-1 cells [1]; Panc-1, 2-20 μM",potent cytotoxicity toward the cells at all concentrations
same,"Sensitivity to cytotoxic effect of 5FU, Irinotecan and Oxaliplatin in combination with BCN057","Panc-1 cells [1]; Panc-1, 24, 48 and 72 hours, all time points except Irinotecan and oxaliplatin at 72 hours",statistically significant sensitivity
same,Lgr5+ve ISCs in jejunal section,Lgr5+ ISCs,significant presence of Lgr5+ve ISCs
same,c-Jun phosphorylation at T-91/93,"c-Jun; KRAS mutant Panc-1 cells, within 20 minutes after drug treatment",significantly increases JNK dependent phosphorylation
same,Total c-Jun protein level,c-Jun; Panc-1 cells,unchanged
same,Time at which cell fragmentation was seen after exposure,Panc-1 cells [2],20 to 30 min
same,Time to blebbing and cell fragmentation,Panc-1 cells [2],≤ 20 min
same,Solubility,[3],excellent solubility at up to pH 4.1 or higher
